Measurements published in the supplement of paper PMC6045584.
± gives the standard deviation of the averaged measurements.

Assays:
BLEOMYCIN = compound: Cc1c(N)nc([C@H](CC(N)=O)NC[C@H](N)C(N)=O)nc1C(=O)N[C@H](C(=O)N[C@H](C)[C@@H](O)[C@H](C)C(=O)N[C@H](C(=O)NCCc1nc(-c2nc(C(=O)NCCC[S+](C)C)cs2)cs1)[C@@H](C)O)[C@@H](OC1OC(CO)C(O)C(O)C1OC1OC(CO)C(O)C(OC(N)=O)C1O)c1cnc[nH]1 [BLEOMYCIN]; assay: surviving fraction relative to DMSO-only wells; higher = less growth inhibition; details: exposure time: 5 days
How it was run: (§1)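 Five days of continuous inhibitor exposure, at 0.5, 1, 5, 10, 50, 100, 500 and 1000 nM, followed a 24-hour period after log-phase tumour cell lines were seeded at 250–500 cells per well in 384-well plates. Surviving fraction was derived from CellTiter-Glo luminescence relative to the median of DMSO-only wells. Plates were read after 10 minutes at room temperature, and lines screened three times were kept only if replicate Pearson r >0.7 and median Z' >0.3.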

BEZ-235 = compound: Cn1c(=O)n(-c2ccc(C(C)(C)C#N)cc2)c2c3cc(-c4cnc5ccccc5c4)ccc3ncc21 [BEZ-235]; assay: as above; details: exposure time: 5 days
How it was run: as §1

DU4475 BREAST showed a surviving fraction (BLEOMYCIN; 0.5 nM) of 0.675 ± 0.13, a surviving fraction (BLEOMYCIN; 1 nM) of 0.792 ± 0.17 and a surviving fraction (BLEOMYCIN; 5 nM) of 0.774 ± 0.2. For the same test system, the surviving fraction (BLEOMYCIN; 10 nM) was 0.77 ± 0.075, the surviving fraction (BLEOMYCIN; 50 nM) was 0.742 ± 0.13 and the surviving fraction (BLEOMYCIN; 100 nM) was 0.62 ± 0.1. For the same test system, the surviving fraction (BLEOMYCIN; 500 nM) was 0.49 ± 0.11, the surviving fraction (BLEOMYCIN; 1000 nM) was 0.378 ± 0.13 and the surviving fraction (BEZ-235; 0.5 nM) was 0.914 ± 0.16. The surviving fraction (BEZ-235; 1 nM) was 1.05 ± 0.13, the surviving fraction (BEZ-235; 5 nM) was 0.919 ± 0.16 and the surviving fraction (BEZ-235; 10 nM) was 0.835 ± 0.1. The surviving fraction (BEZ-235; 50 nM) was 0.525 ± 0.064, the surviving fraction (BEZ-235; 100 nM) was 0.194 ± 0.018 and the surviving fraction (BEZ-235; 500 nM) was 0.0427 ± 0.0085. It also gave a surviving fraction (BEZ-235; 1000 nM) of 0.035 ± 0.0035.

For H23 LUNG, the surviving fraction (BLEOMYCIN; 0.5 nM) was 0.955 ± 0.013, the surviving fraction (BLEOMYCIN; 1 nM) was 0.954 ± 0.032 and the surviving fraction (BLEOMYCIN; 5 nM) was 0.886 ± 0.057. It also gave a surviving fraction (BLEOMYCIN; 10 nM) of 0.763 ± 0.028, a surviving fraction (BLEOMYCIN; 50 nM) of 0.509 ± 0.026 and a surviving fraction (BLEOMYCIN; 100 nM) of 0.338 ± 0.0076. For the same test system, the surviving fraction (BLEOMYCIN; 500 nM) was 0.193 ± 0.014, the surviving fraction (BLEOMYCIN; 1000 nM) was 0.118 ± 0.011 and the surviving fraction (BEZ-235; 0.5 nM) was 1.02 ± 0.051. It also gave a surviving fraction (BEZ-235; 1 nM) of 1.04 ± 0.081, a surviving fraction (BEZ-235; 5 nM) of 0.961 ± 0.057 and a surviving fraction (BEZ-235; 10 nM) of 0.903 ± 0.042. For the same test system, the surviving fraction (BEZ-235; 50 nM) was 0.496 ± 0.055, the surviving fraction (BEZ-235; 100 nM) was 0.382 ± 0.033 and the surviving fraction (BEZ-235; 500 nM) was 0.22 ± 0.015. For the same test system, the surviving fraction (BEZ-235; 1000 nM) was 0.194 ± 0.0072.

Work on HCC78 LUNG yielded a surviving fraction (BLEOMYCIN; 0.5 nM) of 0.839 ± 0.12, a surviving fraction (BLEOMYCIN; 1 nM) of 0.932 ± 0.32 and a surviving fraction (BLEOMYCIN; 5 nM) of 0.892 ± 0.2. For the same test system, the surviving fraction (BLEOMYCIN; 10 nM) was 0.774 ± 0.39, the surviving fraction (BLEOMYCIN; 50 nM) was 0.376 ± 0.14 and the surviving fraction (BLEOMYCIN; 100 nM) was 0.499 ± 0.13. For the same test system, the surviving fraction (BLEOMYCIN; 500 nM) was 0.202 ± 0.075, the surviving fraction (BLEOMYCIN; 1000 nM) was 0.0983 ± 0.032 and the surviving fraction (BEZ-235; 0.5 nM) was 0.953 ± 0.086. For the same test system, the surviving fraction (BEZ-235; 1 nM) was 0.943 ± 0.17, the surviving fraction (BEZ-235; 5 nM) was 1.05 ± 0.23 and the surviving fraction (BEZ-235; 10 nM) was 1.09 ± 0.15. For the same test system, the surviving fraction (BEZ-235; 50 nM) was 0.621 ± 0.18, the surviving fraction (BEZ-235; 100 nM) was 0.393 ± 0.05 and the surviving fraction (BEZ-235; 500 nM) was 0.0757 ± 0.011. The surviving fraction (BEZ-235; 1000 nM) was 0.0527 ± 0.01.

Work on HCC202 BREAST yielded a surviving fraction (BLEOMYCIN; 0.5 nM) of 1.13 ± 0.17, a surviving fraction (BLEOMYCIN; 1 nM) of 1.18 ± 0.095 and a surviving fraction (BLEOMYCIN; 5 nM) of 1.09 ± 0.49. For the same test system, the surviving fraction (BLEOMYCIN; 10 nM) was 1.02 ± 0.14, the surviving fraction (BLEOMYCIN; 50 nM) was 1.1 ± 0.11 and the surviving fraction (BLEOMYCIN; 100 nM) was 0.992 ± 0.17. For the same test system, the surviving fraction (BLEOMYCIN; 500 nM) was 0.862 ± 0.25, the surviving fraction (BLEOMYCIN; 1000 nM) was 0.738 ± 0.1 and the surviving fraction (BEZ-235; 0.5 nM) was 1.02 ± 0.32. It also gave a surviving fraction (BEZ-235; 1 nM) of 1.07 ± 0.036, a surviving fraction (BEZ-235; 5 nM) of 1.21 ± 0.22 and a surviving fraction (BEZ-235; 10 nM) of 1.34 ± 0.32. It also gave a surviving fraction (BEZ-235; 50 nM) of 1.07 ± 0.32, a surviving fraction (BEZ-235; 100 nM) of 0.722 ± 0.27 and a surviving fraction (BEZ-235; 500 nM) of 0.388 ± 0.089. It also gave a surviving fraction (BEZ-235; 1000 nM) of 0.232 ± 0.046.

Test System HCC1395 BREAST has a surviving fraction (BLEOMYCIN; 0.5 nM) of 0.865 ± 0.04, a surviving fraction (BLEOMYCIN; 1 nM) of 0.881 ± 0.14 and a surviving fraction (BLEOMYCIN; 5 nM) of 0.84 ± 0.1. It also gave a surviving fraction (BLEOMYCIN; 10 nM) of 0.902 ± 0.042, a surviving fraction (BLEOMYCIN; 50 nM) of 0.823 ± 0.12 and a surviving fraction (BLEOMYCIN; 100 nM) of 0.872 ± 0.074. The surviving fraction (BLEOMYCIN; 500 nM) was 0.761 ± 0.12, the surviving fraction (BLEOMYCIN; 1000 nM) was 0.73 ± 0.065 and the surviving fraction (BEZ-235; 0.5 nM) was 1.03 ± 0.12. For the same test system, the surviving fraction (BEZ-235; 1 nM) was 0.967 ± 0.11, the surviving fraction (BEZ-235; 5 nM) was 1.14 ± 0.095 and the surviving fraction (BEZ-235; 10 nM) was 1.09 ± 0.037. It also gave a surviving fraction (BEZ-235; 50 nM) of 0.988 ± 0.12, a surviving fraction (BEZ-235; 100 nM) of 1 ± 0.13 and a surviving fraction (BEZ-235; 500 nM) of 0.788 ± 0.12. It also gave a surviving fraction (BEZ-235; 1000 nM) of 0.759 ± 0.17.

Work on HCC1806 BREAST yielded a surviving fraction (BLEOMYCIN; 0.5 nM) of 0.771 ± 0.058, a surviving fraction (BLEOMYCIN; 1 nM) of 0.824 ± 0.1 and a surviving fraction (BLEOMYCIN; 5 nM) of 0.682 ± 0.035. The surviving fraction (BLEOMYCIN; 10 nM) was 0.56 ± 0.0059, the surviving fraction (BLEOMYCIN; 50 nM) was 0.397 ± 0.0062 and the surviving fraction (BLEOMYCIN; 100 nM) was 0.2757 ± 0.0015. For the same test system, the surviving fraction (BLEOMYCIN; 500 nM) was 0.108 ± 0.0021, the surviving fraction (BLEOMYCIN; 1000 nM) was 0.0743 ± 0.0095 and the surviving fraction (BEZ-235; 0.5 nM) was 0.958 ± 0.16. For the same test system, the surviving fraction (BEZ-235; 1 nM) was 0.986 ± 0.14, the surviving fraction (BEZ-235; 5 nM) was 1.17 ± 0.085 and the surviving fraction (BEZ-235; 10 nM) was 1.15 ± 0.1. It also gave a surviving fraction (BEZ-235; 50 nM) of 0.837 ± 0.016, a surviving fraction (BEZ-235; 100 nM) of 0.662 ± 0.05 and a surviving fraction (BEZ-235; 500 nM) of 0.388 ± 0.036. The surviving fraction (BEZ-235; 1000 nM) was 0.317 ± 0.041.

For HCC1954 BREAST, the surviving fraction (BLEOMYCIN; 0.5 nM) was 0.4128 ± 0.0025, the surviving fraction (BLEOMYCIN; 1 nM) was 0.433 ± 0.01 and the surviving fraction (BLEOMYCIN; 5 nM) was 0.42 ± 0.043. The surviving fraction (BLEOMYCIN; 10 nM) was 0.456 ± 0.0085, the surviving fraction (BLEOMYCIN; 50 nM) was 0.467 ± 0.037 and the surviving fraction (BLEOMYCIN; 100 nM) was 0.415 ± 0.064. The surviving fraction (BLEOMYCIN; 500 nM) was 0.364 ± 0.061, the surviving fraction (BLEOMYCIN; 1000 nM) was 0.417 ± 0.01 and the surviving fraction (BEZ-235; 0.5 nM) was 1.02 ± 0.06. It also gave a surviving fraction (BEZ-235; 1 nM) of 0.947 ± 0.1, a surviving fraction (BEZ-235; 5 nM) of 1.05 ± 0.064 and a surviving fraction (BEZ-235; 10 nM) of 0.875 ± 0.11. For the same test system, the surviving fraction (BEZ-235; 50 nM) was 0.492 ± 0.02, the surviving fraction (BEZ-235; 100 nM) was 0.363 ± 0.02 and the surviving fraction (BEZ-235; 500 nM) was 0.172 ± 0.011. For the same test system, the surviving fraction (BEZ-235; 1000 nM) was 0.127 ± 0.0092.

In the case of HCT15 LARGE INTESTINE, the surviving fraction (BLEOMYCIN; 0.5 nM) is reported as 0.883 ± 0.065, the surviving fraction (BLEOMYCIN; 1 nM) is reported as 0.887 ± 0.025 and the surviving fraction (BLEOMYCIN; 5 nM) is reported as 0.852 ± 0.011. It also gave a surviving fraction (BLEOMYCIN; 10 nM) of 0.85 ± 0.019, a surviving fraction (BLEOMYCIN; 50 nM) of 0.805 ± 0.022 and a surviving fraction (BLEOMYCIN; 100 nM) of 0.66 ± 0.044. The surviving fraction (BLEOMYCIN; 500 nM) was 0.15 ± 0.019, the surviving fraction (BLEOMYCIN; 1000 nM) was 0.104 ± 0.0095 and the surviving fraction (BEZ-235; 0.5 nM) was 1.04 ± 0.026. For the same test system, the surviving fraction (BEZ-235; 1 nM) was 1.03 ± 0.057, the surviving fraction (BEZ-235; 5 nM) was 1.11 ± 0.041 and the surviving fraction (BEZ-235; 10 nM) was 1.1 ± 0.033. For the same test system, the surviving fraction (BEZ-235; 50 nM) was 0.655 ± 0.035, the surviving fraction (BEZ-235; 100 nM) was 0.525 ± 0.0089 and the surviving fraction (BEZ-235; 500 nM) was 0.249 ± 0.027. For the same test system, the surviving fraction (BEZ-235; 1000 nM) was 0.209 ± 0.0044.
